Reference: patent publication US8933233B2, “1,3,4-oxadiazole and 1,3,4-thiadiazole β-lactamase inhibitors” (priority 2012, dated 2015)
Counter-ions that a name gives are not always drawn.

How the values were obtained:
[1] = tested on: bacterial strains that express KPC β-lactamases; test: Synergy MIC / standard BLI potentiation MIC assay, strains expressing KPC β-lactamases; assay type: cell-based, isogenic E. coli and clinical isolates; conditions: more active for at least one KPC strain and/or better spectrum; comparator Avibactam
Method in brief: (§1)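 Broth microdilution in CAMHB per CLSI M07-A9, ~10^5 CFU/mL inoculum, 18–20 h at 37 °C with aeration; engineered E. coli kept with 25 μg/mL tetracycline. β-lactam 2-fold from 128 to 0.13 μg/mL with BLI fixed at 4 μg/mL, or BLI serially diluted with β-lactam fixed; MIC is lowest concentration without visible turbidity.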

[2] = tested on: bacterial strains that express the class D cephalosporinase OXA-15; test: Synergy MIC / standard BLI potentiation MIC assay, strains expressing OXA-15; assay type: cell-based, E. coli; conditions: in presence of a β-lactam; comparator Avibactam (CCC)
Method in brief: as §1

| Structure (SMILES) | activity and/or spectrum of activity against bacterial strains that express KPC β-lactamases, compared with Avibactam [1] | activity against bacterial strains that express OXA-15, compared with Avibactam [2] |
| --- | --- | --- |
| N[C@H]1C[C@@H](NCc2nnc([C@@H]3CC[C@@H]4CN3C(=O)N4OS(=O)(=O)O)o2)C1 [Compound 756, (2S,5R)-2-(5-((((1s,3R)-3-aminocyclobutyl)amino)methyl)-1,3,4-oxadiazol-2-yl)-7-oxo-1,6-diazabicyclo[3.2.1]octan-6-yl hydrogen sulfate] | more active than Avibactam | more active than Avibactam |
| N=C(N)N[C@H]1C[C@@H](c2nnc([C@@H]3CC[C@@H]4CN3C(=O)N4OS(=O)(=O)O)o2)C1 [Compound 749, 2S,5R)-2-(5-((1s,3R)-3-guanidinocyclobutyl)-1,3,4-oxadiazol-2-yl)-7-oxo-1,6-diazabicyclo[3.2.1]octan-6-yl hydrogen sulfate] | more active than Avibactam | more active than Avibactam |
| N[C@H]1C[C@H](CCc2nnc([C@@H]3CC[C@@H]4CN3C(=O)N4OS(=O)(=O)O)o2)C1 [Compound 753, (2S,5R)-2-(5-(2-((1r,3R)-3-aminocyclobutyl)ethyl)-1,3,4-oxadiazol-2-yl)-7-oxo-1,6-diazabicyclo[3.2.1]octan-6-yl hydrogen sulfate] | more active than Avibactam | more active than Avibactam |
| O=C1N2C[C@@H](CC[C@H]2c2nnc(COC3CNC3)o2)N1OS(=O)(=O)O [Compound 744, (2S,5R)-2-(5-((azetidin-3-yloxy)methyl)-1,3,4-oxadiazol-2-yl)-7-oxo-1,6-diazabicyclo[3.2.1]octan-6-yl hydrogen sulfate] | more active than Avibactam | more active than Avibactam |
| O=C1N2C[C@@H](CC[C@H]2c2nnc([C@H]3[C@@H]4CNC[C@@H]43)o2)N1OS(=O)(=O)O [Compound 740, (2S,5R)-2-(5-(3-azabicyclo[3.1.0]hexan-6-yl)-1,3,4-oxadiazol-2-yl)-7-oxo-1,6-diazabicyclo[3.2.1]octan-6-yl hydrogen sulfate] | more active than Avibactam | more active than Avibactam |
| N=C(N)N[C@H]1C[C@@H](c2nnc([C@@H]3CC[C@@H]4CN3C(=O)N4OS(=O)(=O)O)s2)C1 [Compound 784, (2S,5R)-2-(5-((1s,3R)-3-guanidinocyclobutyl)-1,3,4-thiadiazol-2-yl)-7-oxo-1,6-diazabicyclo[3.2.1]octan-6-yl hydrogen sulfate] | more active than Avibactam | more active than Avibactam |
| N=C(N)NCC1(c2nnc([C@@H]3CC[C@@H]4CN3C(=O)N4OS(=O)(=O)O)o2)CC1 [Compound 723, (2S,5R)-2-(5-(1-(guanidinomethyl)cyclopropyl)-1,3,4-oxadiazol-2-yl)-7-oxo-1,6-diazabicyclo[3.2.1]octan-6-yl hydrogen sulfate] | more active than Avibactam | more active than Avibactam |
| O=C1N2C[C@@H](CC[C@H]2c2nnc(CN3CCNCC3)o2)N1OS(=O)(=O)O [Compound 777, (2S,5R)-7-oxo-2-(5-(piperazin-1-ylmethyl)-1,3,4-oxadiazol-2-yl)-1,6-diazabicyclo[3.2.1]octan-6-yl hydrogen sulfate] | more active than Avibactam | more active than Avibactam |
| O=C1N2C[C@@H](CC[C@H]2c2nnc(CCNCCO)o2)N1OS(=O)(=O)O [Compound 736, (2S,5R)-2-(5-(2-((2-hydroxyethyl)amino)ethyl)-1,3,4-oxadiazol-2-yl)-7-oxo-1,6-diazabicyclo[3.2.1]octan-6-yl hydrogen sulfate] | more active than Avibactam | more active than Avibactam |
| N[C@H]1C[C@@H](CCc2nnc([C@@H]3CC[C@@H]4CN3C(=O)N4OS(=O)(=O)O)o2)C1 [Compound 754, (2S,5R)-2-(5-(2-((1s,3S)-3-aminocyclobutyl)ethyl)-1,3,4-oxadiazol-2-yl)-7-oxo-1,6-diazabicyclo[3.2.1]octan-6-yl hydrogen sulfate] | more active than Avibactam | more active than Avibactam |
| NC1CC(NCc2nnc([C@@H]3CC[C@@H]4CN3C(=O)N4OS(=O)(=O)O)o2)C1 (stereo partly drawn) [Compound 755, (2S,5R)-2-(5-(((3-aminocyclobutyl)amino)methyl)-1,3,4-oxadiazol-2-yl)-7-oxo-1,6-diazabicyclo[3.2.1]octan-6-yl hydrogen sulfate] | more active than Avibactam | more active than Avibactam |
| O=C1N2C[C@@H](CC[C@H]2c2nnc(CCCC3CNC3)o2)N1OS(=O)(=O)O [Compound 743, (2S,5R)-2-(5-(3-(azetidin-3-yl)propyl)-1,3,4-oxadiazol-2-yl)-7-oxo-1,6-diazabicyclo[3.2.1]octan-6-yl hydrogen sulfate] | more active than Avibactam | more active than Avibactam |
